The source of these data is US20250290117A1, “MOLECULAR PHENOTYPIC ANTIMICROBIAL SUSCEPTIBILITY TESTING” (priority 2024, published 2025).

For the test, the system named is E. coli. The test can be described thus: Molecular phenotypic antimicrobial susceptibility test with direct PCR (no extraction DNA purification step). The test is classed as cell-based, Escherichia coli. To be noted: specimen with <10,000 cells/mL, direct PCR after 16 hours of incubation. On the procedure:
Detection of Molecular Phenotypic Antimicrobial Susceptibility. Disclosed herein are the methods for the detection of phenotypic antimicrobial susceptibility via molecular methods. The present invention describes how a specimen 100 with a known microbial load is incubated and then exposed to a panel of antimicrobial agents to determine sensitivity (prevention of growth) or resistance (allowance of growth) to the specific antimicrobial agents tested utilizing molecular methods.
Sample Collection. Specimens 100 are collected from patients using sterile collection processes that are employed in routine clinical care. Specimens are transported to the testing facility in boric acid preservative. Specimens 100 are subsequently divided into a first sample 104 and a second sample 108.
Preparation of the Specimens for Testing. The specimens 100 are put through a pathogen identification process using PCR technology (e.g., using the first sample 104). The process for pathogen isolation includes steps of harvesting the pathogen (e.g., via centrifugation), isolating pathogen DNA via a DNA isolation and/or purification kit, and performing PCR on the pathogen DNA via PCR components (e.g., primers, enzymes, buffers) as would be known to the skilled artisan. Simultaneously, an additional aliquot of the same specimen (e.g., the second sample 108) is placed with liquid culture media and incubated for 4-6 hours. This aliquot is used for antimicrobial susceptibility testing if indicated based on the pathogen detection results. After pathogen identification is completed and if more than 10,000 cells/mL of bacteria (e.g., eligible bacteria) are detected in the source specimen, the second sample 108 then enters the antimicrobial susceptibility phase of testing. Specimens 100 with lower pathogen loads could also be utilized in the antibiotic susceptibility phase of testing with or without a longer incubation period.
Preparation of Antimicrobial Susceptibility Testing Plates. Antimicrobial solutions are prepared at known concentrations. The specific antimicrobials and their concentrations are selected based on the pathogen of interest and the described antimicrobial resistance breakpoints for that specimen pathogen and antimicrobial combination. These antimicrobials have been selected based on those commonly utilized by healthcare providers in routine clinical care for the specific type of suspected infection. The number and types of antimicrobials utilized can be customized based on the infection source, pathogen detected, patient-specific factors such as allergies or other health conditions (e.g., chronic kidney disease or concurrent medication use), or healthcare provider preferences such as antimicrobial availability or cost.
The antimicrobial solutions are prepared in liquid culture media (such as Muller Hinton Broth) to achieve the desired antimicrobial concentration and are then stored at −80° C. until use. For a given specimen, each antimicrobial is tested at a single or multiple antimicrobial concentration(s) which is its established breakpoints for sensitivity. The antimicrobial solutions are prepared and plated out for each specific pathogen. This allows ease of use on the day of testing after defrosting the plate 112. Table 1, which illustrates the results of molecular phenotypic antimicrobial susceptibility testing when more than one organism is present in the source specimen, provides an example of an antimicrobial plate 112 prepared for this purpose. Of note, control wells containing only culture media are present on all plates 112. This allows for evaluation of pathogen load when no antimicrobial is present.
Specimen Exposure to Antimicrobial Agents. The 1 mL aliquot of the specimen 100 previously mixed with culture media and incubated is obtained. Using optical density measurements as a guide, the specimen 100 is diluted to 0.5 McFarland. […]

SMILES strings stand for the structures.

On to `C[C@H]1c2cccc(O)c2C(=O)C2=C(O)[C@]3(O)C(=O)C(C(N)=O)=C(O)[C@@H](N(C)C)[C@@H]3[C@@H](O)[C@@H]21` [Doxycycline], for which the “Molecular Antimicrobial Susceptibility Result” value runs as follows: (E. coli #1 - WDCM 00090 - 6.2×E3) “Sensitive (Antimicrobial wells with pathogen load detected below the control wells (typically >2 cycle thresholds later) may be reported as Sensitive)”; (E. coli #2 - WDCM 00090 - 6.2×E3) “Sensitive (Antimicrobial wells with pathogen load detected below the control wells (typically >2 cycle thresholds later) may be reported as Sensitive)”. Further, the “Ct at Sensitive Breakpoint” value turned out to be 25.83 (E. coli #1 - WDCM 00090 - 6.2×E3, Ct at control 13.787) and 27.02 (E. coli #2 - WDCM 00090 - 6.2×E3, Ct at control 13.46).
